Experimental data reported in patent publication US20220347175A1, “PYRIDAZINONE DERIVATIVE” (Sumitomo Dainippon Pharma Co., Ltd., priority 2018, published 2022).

How the values were obtained:
human Nav1.1 = target: T1, human Nav1.1 (Homo sapiens, UniProt P35498); experiment: Amplification of Nav1.1-derived voltage-dependent sodium current (Nav1.1 current), cell line stably expressing human Nav1.1, automated patch clamp; format: cell-based; settings: for activation at 10 µM / activation at 1 µM: read-out: Nav1.1 current amplification rate (%)
T1 construct: host or cells: HEK293
Procedure, shortened: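 Automated whole-cell voltage-clamp recordings used HEK293 cells stably expressing human Nav1.1, keeping only cells with >500 pA current, with currents evoked by ramp voltage. Compounds were applied in extracellular fluid with 1% DMSO, and amplification (%) was computed from peak current or AUC after versus before addition.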

human Nav1.5 = target: T2, human Nav1.5 (Homo sapiens, UniProt Q14524); experiment: Amplification of Nav1.5-derived voltage-dependent sodium current (Nav1.5 current), cell line stably expressing human Nav1.5, automated patch clamp; format: cell-based; settings: for activation at 10 µM / activation at 1 µM: read-out: Nav1.5 current amplification rate (%)
T2 construct: expressed in transfected cells; host or cells: CHO-K1 (T-REx System, ThermoFisher Scientific)

[1] = compound 3 μmol/L, HEK293 stably expressing human Nav1.1
[2] = compound 3 μmol/L, CHO-K1 stably expressing human Nav1.5
[3] = 10 μmol/L compound, change of the area under the curve of Nav1.1 current (Test Result 1)
[4] = 10 μmol/L compound, change of the area under the curve of Nav1.5 current (Test Result 1)
[5] = compound 1 μmol/L, HEK293 stably expressing human Nav1.1
[6] = compound 1 μmol/L, CHO-K1 stably expressing human Nav1.5

T2 sequence (Q14524 1-2015 isoform Q14524-2): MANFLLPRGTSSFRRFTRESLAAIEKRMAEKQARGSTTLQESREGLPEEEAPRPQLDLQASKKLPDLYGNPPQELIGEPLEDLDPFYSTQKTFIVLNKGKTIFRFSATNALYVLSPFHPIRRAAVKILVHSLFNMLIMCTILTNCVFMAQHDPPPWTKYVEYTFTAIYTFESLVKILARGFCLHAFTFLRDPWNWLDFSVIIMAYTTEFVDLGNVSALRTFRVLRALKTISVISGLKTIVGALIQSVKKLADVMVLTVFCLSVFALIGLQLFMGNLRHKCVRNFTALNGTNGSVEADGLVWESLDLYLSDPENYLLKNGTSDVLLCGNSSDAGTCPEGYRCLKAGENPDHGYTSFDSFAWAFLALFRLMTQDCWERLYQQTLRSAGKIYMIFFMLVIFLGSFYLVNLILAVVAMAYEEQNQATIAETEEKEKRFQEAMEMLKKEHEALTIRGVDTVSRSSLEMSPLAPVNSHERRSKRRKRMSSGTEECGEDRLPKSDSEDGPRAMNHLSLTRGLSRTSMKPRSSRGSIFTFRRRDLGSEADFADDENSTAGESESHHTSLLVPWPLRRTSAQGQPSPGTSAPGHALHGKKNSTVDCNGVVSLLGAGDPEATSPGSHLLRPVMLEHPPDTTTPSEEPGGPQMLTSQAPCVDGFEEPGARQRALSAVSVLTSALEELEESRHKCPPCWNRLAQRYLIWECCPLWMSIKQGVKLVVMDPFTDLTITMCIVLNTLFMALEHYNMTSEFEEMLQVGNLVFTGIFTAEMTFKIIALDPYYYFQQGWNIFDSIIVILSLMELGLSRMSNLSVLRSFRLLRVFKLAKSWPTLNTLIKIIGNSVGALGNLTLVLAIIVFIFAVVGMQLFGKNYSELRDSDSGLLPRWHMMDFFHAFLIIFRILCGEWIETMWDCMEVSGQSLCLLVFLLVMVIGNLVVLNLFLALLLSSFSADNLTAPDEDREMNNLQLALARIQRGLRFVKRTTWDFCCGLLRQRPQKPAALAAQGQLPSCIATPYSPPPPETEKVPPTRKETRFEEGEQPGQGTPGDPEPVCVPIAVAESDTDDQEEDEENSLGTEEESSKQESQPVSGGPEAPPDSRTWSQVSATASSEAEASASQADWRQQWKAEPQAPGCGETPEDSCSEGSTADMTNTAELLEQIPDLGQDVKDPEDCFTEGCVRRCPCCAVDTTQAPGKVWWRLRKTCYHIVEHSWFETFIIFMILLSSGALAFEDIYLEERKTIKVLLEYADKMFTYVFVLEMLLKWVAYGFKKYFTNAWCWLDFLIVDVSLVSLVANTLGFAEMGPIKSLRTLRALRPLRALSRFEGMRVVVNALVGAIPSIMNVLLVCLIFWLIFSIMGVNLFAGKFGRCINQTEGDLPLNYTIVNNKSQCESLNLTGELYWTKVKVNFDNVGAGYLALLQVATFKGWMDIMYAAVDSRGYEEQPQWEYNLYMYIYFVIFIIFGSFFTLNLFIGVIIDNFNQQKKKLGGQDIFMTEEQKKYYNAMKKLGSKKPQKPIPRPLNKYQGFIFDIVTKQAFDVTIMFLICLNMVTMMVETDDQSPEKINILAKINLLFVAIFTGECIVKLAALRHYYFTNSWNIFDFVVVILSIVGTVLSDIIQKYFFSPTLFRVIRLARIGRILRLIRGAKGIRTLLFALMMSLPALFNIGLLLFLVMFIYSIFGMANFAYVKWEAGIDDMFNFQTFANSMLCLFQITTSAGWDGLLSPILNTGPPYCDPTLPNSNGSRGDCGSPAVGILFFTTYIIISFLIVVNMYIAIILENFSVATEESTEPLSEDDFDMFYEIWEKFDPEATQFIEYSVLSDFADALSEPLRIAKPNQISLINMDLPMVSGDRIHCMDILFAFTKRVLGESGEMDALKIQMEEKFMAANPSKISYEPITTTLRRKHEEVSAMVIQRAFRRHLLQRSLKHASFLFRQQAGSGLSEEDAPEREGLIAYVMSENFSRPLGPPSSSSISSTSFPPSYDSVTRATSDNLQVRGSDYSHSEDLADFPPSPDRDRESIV

SMILES	Nav1.1 current amplification rate (%) (human Nav1.1; [3])	activation at 10 µM (human Nav1.1; [3]) [%]	Nav1.5 current amplification rate (%) (human Nav1.5; [4])	activation at 10 µM (human Nav1.5; [4]) [%]	also measured
CC1CC=C(c2ccc(=O)n(CC(=O)N3CCc4c(C5CN(C6COC6)C5)cccc43)n2)CC1 (racemic) [Example 301]					Nav1.1 current amplification rate (%) (human Nav1.1; [1]): 410%; Nav1.5 current amplification rate (%) (human Nav1.5; [2]): 55%
CC1CC=C(c2ccc(=O)n(CC(=O)N3CCc4c(-c5cn[nH]c5)cccc43)n2)CC1 (racemic) [Example 254]					Nav1.1 current amplification rate (%) (human Nav1.1; [1]): 309%; Nav1.5 current amplification rate (%) (human Nav1.5; [2]): 74%
CC1CC=C(c2ccc(=O)n(CC(=O)N3CCc4c(Cn5cncn5)cccc43)n2)CC1 (racemic) [Example 294]					Nav1.1 current amplification rate (%) (human Nav1.1; [5]): 271%; Nav1.5 current amplification rate (%) (human Nav1.5; [6]): 427%
Cc1ccc(-c2ccc(=O)n(CC(=O)N3CCc4c(C5CN(C6COC6)C5)cccc43)n2)cc1 [Example 516]					activation at 1 µM (human Nav1.1; [5]): 130%; activation at 1 µM (human Nav1.5; [6]): 13%
CC1CC=C(c2ccc(=O)n(CC(=O)N3CC=C(c4nccc5occc45)CC3)n2)CC1 (stereo not shown) [Example 404]	42		6		
CC1CC=C(c2ccc(=O)n(CC(=O)Nc3ccc4cncnc4c3)n2)CC1 (racemic) [Example 356]					Nav1.1 current amplification rate (%) (human Nav1.1; [5]): 378%; Nav1.5 current amplification rate (%) (human Nav1.5; [6]): 34%
CN(C)c1cc(N2CCC3(CCC3)C2)nn(CC(=O)N2CCc3c(N4CCOCC4)cccc32)c1=O [Example 222]					activation at 1 µM (human Nav1.1; [5]): 137%; activation at 1 µM (human Nav1.5; [6]): 11%
Cc1ccc(-c2nn(CC(=O)Nc3ccn4ccnc4c3)c(=O)c(C)c2C)cc1 [Example 156]	33		4		
CC1CC=C(c2ccc(=O)n(CC(=O)Nc3ccc4oc(CN(C)C)nc4c3)n2)CC1 (racemic) [Example 324]					Nav1.1 current amplification rate (%) (human Nav1.1; [1]): 50%; Nav1.5 current amplification rate (%) (human Nav1.5; [2]): 5%
Cc1cc(NC(=O)Cn2nc(N3CCC4(CCCC4)C3)c(C)cc2=O)cc(C)n1 [Example 199]		36		1	
COc1cc(=O)n(CC(=O)Nc2ccn3ccnc3c2)nc1C1=CCC(C)(C)CC1 [Example 459]	118		21		
Cc1cc(=O)n(CC(=O)Nc2ccn3ncnc3c2)nc1C1=CCC(C)CC1 (stereo not shown) [Example 502]					activation at 1 µM (human Nav1.1; [5]): 49%; activation at 1 µM (human Nav1.5; [6]): 7%
CC1CC=C(c2ccc(=O)n(CC(=O)Nc3cc4nccn4cn3)n2)CC1 (racemic) [Example 328]					Nav1.1 current amplification rate (%) (human Nav1.1; [1]): 58%; Nav1.5 current amplification rate (%) (human Nav1.5; [2]): 21%

Now from value to compound, other results behind:

Nav1.1 current amplification rate (%) (human Nav1.1; [3])	activation at 10 µM (human Nav1.1; [3]) [%]	SMILES	Nav1.5 current amplification rate (%) (human Nav1.5; [4])	activation at 10 µM (human Nav1.5; [4]) [%]	also measured
49		CC1CCN(c2ccc(=O)n(CC(=O)Nc3cncc(Cl)c3)n2)CC1 [Example 63]	3		
177		CC1CCN(c2ccc(=O)n(CC(=O)Nc3cccc(-n4ccnc4)c3)n2)CC1 [Example 67]	18		
	324	O=C(Cn1nc(N2CCC3(CCC3)C2)ccc1=O)Nc1ccc2scnc2c1 [Example 160]		33	
	118	CC1CCN(c2ccc(=O)n(CC(=O)Nc3ccc4c(c3)NC(=O)CC4)n2)CC1 [Example 181]		4	
	176	O=C(Cn1nc(N2CCCCCC2)ccc1=O)Nc1ccnc(C(F)(F)F)c1 [Example 120]		5	
	173	O=C(Cn1nc(N2CCC3(CCCC3)C2)ccc1=O)Nc1ccc2ocnc2c1 [Example 122]		18	
	25	CC1CCN(c2ccc(=O)n(CC(=O)Nc3ccc(C(=O)N4CCCC4)nc3)n2)CC1 [Example 217]		1	
198		CC1CCN(c2ccc(=O)n(CC(=O)Nc3cc(Cl)c4ocnc4c3)n2)CC1 [Example 94]	29		
276		CC1CC=C(c2ccc(=O)n(CC(=O)Nc3ccc4oc(C(F)F)nc4c3)n2)CC1 (racemic) [Example 243]	19		
	209	COc1cc(=O)n(CC(=O)Nc2ccc3ocnc3c2)nc1N1CCC2(CCCC2)C1 [Example 195]		29	
